Assay results as given in ChEMBL document CHEMBL5291721, “A preclinical secondary pharmacology resource illuminates target-adverse drug reaction associations of marketed drugs” (Nat Commun, 2023).

How the values were obtained:
[1] = target: D(3) dopamine receptor (Homo sapiens, UniProt P35462)
[2] = target: 3',5'-cyclic-AMP phosphodiesterase 4A (Homo sapiens, UniProt P27815); format: functional
[3] = target: Acetylcholinesterase (Homo sapiens, UniProt P22303); format: functional
[4] = target: T1, Thromboxane A2 receptor (Homo sapiens, UniProt P21731); format: functional, cell-based
T1 sequence (P21731 whole entry): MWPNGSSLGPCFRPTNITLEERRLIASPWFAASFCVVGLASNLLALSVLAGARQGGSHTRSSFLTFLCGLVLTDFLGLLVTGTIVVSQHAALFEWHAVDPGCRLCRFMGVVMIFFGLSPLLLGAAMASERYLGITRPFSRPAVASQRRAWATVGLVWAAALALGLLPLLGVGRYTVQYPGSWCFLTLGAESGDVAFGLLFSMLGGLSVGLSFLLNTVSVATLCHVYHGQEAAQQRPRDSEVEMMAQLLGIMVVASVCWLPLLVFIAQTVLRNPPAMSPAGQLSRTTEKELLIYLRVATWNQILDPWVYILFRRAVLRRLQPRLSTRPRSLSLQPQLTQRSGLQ

[5] = target: Sodium-dependent dopamine transporter (Homo sapiens, UniProt Q01959)
Chain of Sodium-dependent dopamine transporter (Q01959 whole entry): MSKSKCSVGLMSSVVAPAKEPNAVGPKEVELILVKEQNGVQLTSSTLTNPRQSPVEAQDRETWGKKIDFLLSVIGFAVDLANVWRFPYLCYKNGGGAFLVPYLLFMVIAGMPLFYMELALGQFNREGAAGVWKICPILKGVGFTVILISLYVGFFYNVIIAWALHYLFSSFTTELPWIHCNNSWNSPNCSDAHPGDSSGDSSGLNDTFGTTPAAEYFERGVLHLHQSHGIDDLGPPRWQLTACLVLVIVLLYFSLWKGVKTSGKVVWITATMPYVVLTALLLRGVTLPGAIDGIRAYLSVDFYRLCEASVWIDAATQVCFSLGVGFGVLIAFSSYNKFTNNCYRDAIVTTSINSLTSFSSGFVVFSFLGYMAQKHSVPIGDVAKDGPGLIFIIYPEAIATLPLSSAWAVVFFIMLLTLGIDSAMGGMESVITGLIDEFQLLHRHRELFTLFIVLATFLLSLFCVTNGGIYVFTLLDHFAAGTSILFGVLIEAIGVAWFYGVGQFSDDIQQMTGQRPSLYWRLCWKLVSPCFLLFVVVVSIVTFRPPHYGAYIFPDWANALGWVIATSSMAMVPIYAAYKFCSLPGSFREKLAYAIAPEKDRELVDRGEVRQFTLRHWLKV

[6] = target: T2, Progesterone receptor (Homo sapiens, UniProt P06401)
T2 sequence (P06401 whole entry): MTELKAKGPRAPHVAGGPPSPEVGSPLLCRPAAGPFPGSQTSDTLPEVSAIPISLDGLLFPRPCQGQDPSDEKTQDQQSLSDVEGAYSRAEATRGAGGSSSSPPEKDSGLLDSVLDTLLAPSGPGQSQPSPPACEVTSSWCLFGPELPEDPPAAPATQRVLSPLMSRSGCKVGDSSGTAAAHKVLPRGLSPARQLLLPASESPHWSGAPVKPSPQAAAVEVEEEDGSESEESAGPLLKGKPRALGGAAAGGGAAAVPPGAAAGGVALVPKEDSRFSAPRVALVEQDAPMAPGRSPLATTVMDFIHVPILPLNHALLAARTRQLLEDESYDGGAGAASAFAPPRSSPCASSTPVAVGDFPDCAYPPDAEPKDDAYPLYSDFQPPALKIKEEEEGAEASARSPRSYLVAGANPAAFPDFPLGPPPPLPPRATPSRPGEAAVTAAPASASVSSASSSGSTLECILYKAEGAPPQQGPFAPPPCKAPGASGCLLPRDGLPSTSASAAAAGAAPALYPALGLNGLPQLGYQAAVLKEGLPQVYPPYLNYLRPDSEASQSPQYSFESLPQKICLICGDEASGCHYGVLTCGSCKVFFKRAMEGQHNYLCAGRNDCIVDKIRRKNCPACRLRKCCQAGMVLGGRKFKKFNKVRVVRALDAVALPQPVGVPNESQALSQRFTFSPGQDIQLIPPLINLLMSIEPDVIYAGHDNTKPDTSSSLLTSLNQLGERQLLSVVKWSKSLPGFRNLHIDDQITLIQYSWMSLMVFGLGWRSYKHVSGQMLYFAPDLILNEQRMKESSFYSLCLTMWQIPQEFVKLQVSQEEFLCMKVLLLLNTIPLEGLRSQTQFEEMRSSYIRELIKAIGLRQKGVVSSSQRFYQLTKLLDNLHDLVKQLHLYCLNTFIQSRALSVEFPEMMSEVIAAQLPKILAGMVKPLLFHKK

[7] = target: T1, Thromboxane A2 receptor; format: functional, cell-based; remark: listed apart in the source
[8] = target: Sodium-dependent noradrenaline transporter (Homo sapiens, UniProt P23975)
Chain of Sodium-dependent noradrenaline transporter (P23975 whole entry): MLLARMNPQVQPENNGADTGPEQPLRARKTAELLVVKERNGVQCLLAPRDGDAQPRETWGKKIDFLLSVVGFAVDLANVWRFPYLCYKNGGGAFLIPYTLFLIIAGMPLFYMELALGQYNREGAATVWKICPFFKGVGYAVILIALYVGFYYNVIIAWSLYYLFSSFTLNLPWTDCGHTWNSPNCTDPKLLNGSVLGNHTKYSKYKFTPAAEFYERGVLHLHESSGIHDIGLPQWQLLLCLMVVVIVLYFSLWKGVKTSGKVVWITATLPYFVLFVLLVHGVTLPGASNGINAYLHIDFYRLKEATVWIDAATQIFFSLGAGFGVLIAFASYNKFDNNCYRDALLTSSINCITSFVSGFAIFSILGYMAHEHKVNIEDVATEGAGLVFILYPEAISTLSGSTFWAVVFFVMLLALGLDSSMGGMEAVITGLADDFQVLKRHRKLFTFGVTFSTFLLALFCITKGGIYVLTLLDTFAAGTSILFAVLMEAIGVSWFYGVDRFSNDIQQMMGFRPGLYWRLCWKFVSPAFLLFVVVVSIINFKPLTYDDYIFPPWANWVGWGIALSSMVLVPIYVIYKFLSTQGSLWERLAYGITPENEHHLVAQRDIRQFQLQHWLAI

[9] = target: Prostaglandin G/H synthase 1 (Homo sapiens, UniProt P23219); format: functional
Chain of Prostaglandin G/H synthase 1 (P23219 whole entry): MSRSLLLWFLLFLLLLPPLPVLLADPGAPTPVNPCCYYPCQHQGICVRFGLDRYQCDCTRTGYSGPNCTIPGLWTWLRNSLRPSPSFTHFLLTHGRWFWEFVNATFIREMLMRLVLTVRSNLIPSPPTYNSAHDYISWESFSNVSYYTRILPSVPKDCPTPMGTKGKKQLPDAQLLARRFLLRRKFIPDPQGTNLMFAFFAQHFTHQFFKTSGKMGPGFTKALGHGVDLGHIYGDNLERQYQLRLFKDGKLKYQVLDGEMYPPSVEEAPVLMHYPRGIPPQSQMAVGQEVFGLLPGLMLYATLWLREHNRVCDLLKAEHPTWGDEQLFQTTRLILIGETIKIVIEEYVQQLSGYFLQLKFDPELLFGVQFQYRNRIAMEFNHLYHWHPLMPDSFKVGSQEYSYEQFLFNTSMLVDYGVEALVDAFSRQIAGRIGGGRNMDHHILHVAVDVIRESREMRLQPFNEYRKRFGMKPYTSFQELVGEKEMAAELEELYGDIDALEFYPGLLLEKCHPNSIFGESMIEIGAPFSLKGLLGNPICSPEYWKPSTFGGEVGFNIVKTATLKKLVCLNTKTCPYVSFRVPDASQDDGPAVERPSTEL

[10] = target: T3, Alpha-1A adrenergic receptor (Homo sapiens, UniProt P35348); format: functional, cell-based
T3 sequence (P35348 whole entry): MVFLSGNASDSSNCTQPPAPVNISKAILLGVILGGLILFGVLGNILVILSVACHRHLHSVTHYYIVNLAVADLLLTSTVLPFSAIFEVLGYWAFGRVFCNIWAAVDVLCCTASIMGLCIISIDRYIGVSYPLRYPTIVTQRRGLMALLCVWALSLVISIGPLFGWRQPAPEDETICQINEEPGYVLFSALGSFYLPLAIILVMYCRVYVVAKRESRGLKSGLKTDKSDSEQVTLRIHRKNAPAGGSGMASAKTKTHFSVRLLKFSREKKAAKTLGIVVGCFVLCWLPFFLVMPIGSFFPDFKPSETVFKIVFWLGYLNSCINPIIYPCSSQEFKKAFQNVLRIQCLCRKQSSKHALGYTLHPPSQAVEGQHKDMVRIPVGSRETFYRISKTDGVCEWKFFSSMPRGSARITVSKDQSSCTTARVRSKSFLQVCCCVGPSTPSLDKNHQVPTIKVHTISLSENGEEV

[11] = target: T3, Alpha-1A adrenergic receptor; format: functional, cell-based; remark: listed apart in the source
[12] = target: T4, Adenosine receptor A3 (Homo sapiens, UniProt P0DMS8)
T4 sequence (P0DMS8 whole entry): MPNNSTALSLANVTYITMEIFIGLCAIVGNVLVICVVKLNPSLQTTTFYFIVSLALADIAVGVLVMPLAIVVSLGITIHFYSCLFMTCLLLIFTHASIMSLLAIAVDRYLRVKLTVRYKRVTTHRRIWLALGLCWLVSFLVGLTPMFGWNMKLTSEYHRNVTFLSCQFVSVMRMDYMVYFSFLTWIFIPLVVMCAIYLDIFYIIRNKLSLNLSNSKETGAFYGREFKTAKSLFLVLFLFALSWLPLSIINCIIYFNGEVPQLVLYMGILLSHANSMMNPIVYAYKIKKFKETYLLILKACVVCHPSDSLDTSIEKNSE
Note: assay procedure not described here.

Chain of D(3) dopamine receptor (P35462 whole entry): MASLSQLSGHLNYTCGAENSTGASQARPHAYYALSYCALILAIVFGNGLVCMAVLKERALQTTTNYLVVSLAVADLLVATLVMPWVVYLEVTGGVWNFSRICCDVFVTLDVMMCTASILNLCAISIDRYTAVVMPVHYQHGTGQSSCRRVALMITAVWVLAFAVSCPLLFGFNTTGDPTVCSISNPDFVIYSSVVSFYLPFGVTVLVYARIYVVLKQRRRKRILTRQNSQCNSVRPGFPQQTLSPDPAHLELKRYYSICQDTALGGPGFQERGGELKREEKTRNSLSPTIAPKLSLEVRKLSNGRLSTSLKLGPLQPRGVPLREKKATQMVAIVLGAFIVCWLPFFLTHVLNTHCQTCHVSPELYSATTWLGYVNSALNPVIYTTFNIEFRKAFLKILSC
Chain of 3',5'-cyclic-AMP phosphodiesterase 4A (P27815 whole entry): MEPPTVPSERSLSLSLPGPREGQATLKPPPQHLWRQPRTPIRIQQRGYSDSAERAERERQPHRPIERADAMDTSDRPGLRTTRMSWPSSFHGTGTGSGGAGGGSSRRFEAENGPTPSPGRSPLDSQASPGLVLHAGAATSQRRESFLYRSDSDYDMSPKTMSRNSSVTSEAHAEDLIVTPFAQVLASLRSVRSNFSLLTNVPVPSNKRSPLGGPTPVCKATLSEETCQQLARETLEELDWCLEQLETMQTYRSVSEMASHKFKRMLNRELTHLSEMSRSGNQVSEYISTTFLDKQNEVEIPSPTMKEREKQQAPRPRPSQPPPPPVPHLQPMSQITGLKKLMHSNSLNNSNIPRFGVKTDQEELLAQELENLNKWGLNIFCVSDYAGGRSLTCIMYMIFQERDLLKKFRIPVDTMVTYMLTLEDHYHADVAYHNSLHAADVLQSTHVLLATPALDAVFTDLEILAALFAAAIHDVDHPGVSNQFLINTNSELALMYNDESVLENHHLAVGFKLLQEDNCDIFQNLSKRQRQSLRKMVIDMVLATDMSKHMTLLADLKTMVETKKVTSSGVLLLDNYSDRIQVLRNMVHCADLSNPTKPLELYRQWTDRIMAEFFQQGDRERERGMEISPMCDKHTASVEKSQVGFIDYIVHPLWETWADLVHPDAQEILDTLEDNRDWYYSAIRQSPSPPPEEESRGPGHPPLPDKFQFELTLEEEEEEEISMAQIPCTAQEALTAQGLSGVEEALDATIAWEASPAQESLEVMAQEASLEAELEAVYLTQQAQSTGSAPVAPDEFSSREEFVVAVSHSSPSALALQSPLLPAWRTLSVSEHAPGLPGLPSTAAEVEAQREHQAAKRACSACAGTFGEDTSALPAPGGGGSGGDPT
Chain of Acetylcholinesterase (P22303 whole entry): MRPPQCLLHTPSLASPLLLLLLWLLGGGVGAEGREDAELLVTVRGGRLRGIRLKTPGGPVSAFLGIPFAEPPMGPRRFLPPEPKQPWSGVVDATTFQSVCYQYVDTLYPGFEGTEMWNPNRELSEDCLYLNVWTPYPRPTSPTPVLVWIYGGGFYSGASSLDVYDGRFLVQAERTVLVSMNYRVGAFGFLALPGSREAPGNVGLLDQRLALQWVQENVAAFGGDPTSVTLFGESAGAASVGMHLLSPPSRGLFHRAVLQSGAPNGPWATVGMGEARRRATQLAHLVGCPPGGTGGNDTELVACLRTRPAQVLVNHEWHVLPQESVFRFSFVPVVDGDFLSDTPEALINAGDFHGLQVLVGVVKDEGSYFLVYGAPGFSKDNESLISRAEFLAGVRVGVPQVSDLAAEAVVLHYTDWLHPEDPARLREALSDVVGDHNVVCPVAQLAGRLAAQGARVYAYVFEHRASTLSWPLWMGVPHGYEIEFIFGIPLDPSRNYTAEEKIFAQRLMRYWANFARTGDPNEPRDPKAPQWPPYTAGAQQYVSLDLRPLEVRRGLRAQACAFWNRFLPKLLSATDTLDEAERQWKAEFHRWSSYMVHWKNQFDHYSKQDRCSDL

SMILES | AC50 [1] [µM] | AC50 [2] [µM] | AC50 [3] [µM] | AC50 [4] [µM] | AC50 [5] [µM] | AC50 [6] [µM] | AC50 [7] [µM] | AC50 [8] [µM] | AC50 [9] [µM] | AC50 [10] [µM] | AC50 [11] [µM] | AC50 [12] [µM]
CO/N=C(\C(=O)N[C@@H]1C(=O)N2C(C(=O)OCOC(=O)C(C)(C)C)=C(C)CS[C@H]12)c1csc(N)n1 | > 30 | > 30 | > 30 | > 30 | > 30 | > 30 | > 30 | > 30 | 23.2 | – | – | –
CCS(=O)(=O)N1CC(CC#N)(n2cc(-c3ncnc4[nH]ccc34)cn2)C1 [BARICITINIB] | > 30 | > 30 | > 10 | > 10 | > 30 | > 30 | > 30 | > 30 | > 30 | > 30 | > 10 | –
O=C(Cn1ccnc1[N+](=O)[O-])NCc1ccccc1 [BENZNIDAZOLE] | > 30 | > 30 | > 30 | > 30 | > 30 | > 30 | > 30 | > 30 | > 30 | – | – | –
NCc1ccccc1CC(=O)N[C@@H]1C(=O)N2C(C(=O)O)=C(CSc3nnnn3CC(=O)O)CS[C@H]12 [CEFORANIDE] | > 30 | > 30 | > 30 | > 30 | > 30 | > 30 | > 30 | > 30 | > 30 | > 30 | > 30 | –
COCC1=C(C(=O)OC(C)OC(=O)OC(C)C)N2C(=O)[C@@H](NC(=O)/C(=N\OC)c3csc(N)n3)[C@H]2SC1 (stereo not given in full) [CEFPODOXIME PROXETIL] | > 30 | > 30 | > 30 | > 30 | > 30 | > 30 | > 30 | > 30 | 18.1 | – | – | –
NS(=O)(=O)c1cc2c(cc1Cl)NC(CC1CCCC1)NS2(=O)=O (stereo not given) [CYCLOPENTHIAZIDE] | > 30 | > 30 | > 30 | > 30 | > 30 | > 30 | > 30 | > 30 | > 30 | – | – | –
N/N=c1/cc2c(n[nH]1)CCN(C(=O)c1ccccc1)C2 [ENDRALAZINE] | > 30 | > 30 | > 30 | > 30 | > 30 | > 30 | > 30 | > 30 | > 30 | – | – | –
CC(C)=CCC1C(=O)N(c2ccccc2)N(c2ccccc2)C1=O [FEPRAZONE] | > 30 | > 30 | > 30 | > 30 | > 30 | > 30 | > 30 | > 30 | 0.26 | – | – | –
CCN(CC)CCNc1ccc(C)c2sc3ccccc3c(=O)c12 [LUCANTHONE] | 0.91 | > 30 | > 30 | 13.4 | 3.42 | > 30 | > 30 | 2.68 | > 30 | 17.9 | – | 12.4
CCOC(=O)CC(SP(=S)(OC)OC)C(=O)OCC (stereo not given) [MALATHION] | > 30 | > 30 | > 30 | > 30 | > 30 | > 30 | > 30 | > 30 | > 30 | > 30 | > 30 | –
CN1C(=O)N(C)C2C1N(C)C(=O)N2C (stereo not given) [MEBICAR] | > 30 | > 30 | > 30 | > 30 | > 30 | > 30 | > 30 | > 30 | > 30 | – | – | –
CC(=O)O[C@]1(C(C)=O)CC[C@H]2[C@@H]3C[C@H](C)C4=CC(=O)CC[C@]4(C)[C@H]3CC[C@@]21C [MEDROXYPROGESTERONE ACETATE] | > 30 | > 30 | > 30 | > 30 | > 30 | – | > 30 | > 30 | > 10 | > 30 | > 30 | –
NC(=O)c1cccc2cn(-c3ccc([C@@H]4CCCNC4)cc3)nc12 [NIRAPARIB] | > 30 | > 30 | > 30 | > 30 | 0.113 | > 30 | > 30 | 1 | > 30 | > 30 | > 30 | –
COc1ccc2c(c1)OC(C)(C)C(c1ccccc1)C2c1ccc(OCCN2CCCC2)cc1 (stereo not given) [ORMELOXIFENE] | 0.205 | > 30 | > 30 | 12.2 | 3 | 3.57 | > 30 | 4.9 | 3.31 | 13.4 | – | 3.66
Nc1ccc(/N=N/c2ccccc2)c(N)n1 [PHENAZOPYRIDINE] | > 30 | 22.5 | > 3 | 28.4 | 4.71 | > 30 | > 30 | 3.85 | > 30 | – | – | –
O=C(O)CCn1c2c(c3ccccc31)C[C@H](NS(=O)(=O)c1ccc(F)cc1)CC2 [RAMATROBAN] | > 30 | > 30 | > 30 | 0.04 | > 30 | > 30 | > 30 | > 30 | > 30 | > 30 | > 30 | –
CCO[C@@H](Cc1ccc(OCCn2c(C)ccc2-c2ccc(SC)cc2)cc1)C(=O)O [SAROGLITAZAR] | 22.2 | 11.1 | > 30 | – | > 30 | 8.57 | 16.4 | 24.5 | 9.49 | 15 | – | 14.9
COc1cc(NCc2ccc3nc(N)nc(N)c3c2C)cc(OC)c1OC [TRIMETREXATE] | 2.67 | 7.19 | 1.62 | > 30 | 9.54 | > 30 | > 30 | 12.3 | 28.1 | > 30 | > 30 | –
